Here are results for one molecule from patent publication US20250375450A1, “SMARCA2/4 INHIBITION AS A STRATEGY TO TREAT TUMORS THAT HARBOR ABERRANT BAF ASSEMBLIES” (BOARD OF REGENTS, THE UNIVERSITY OF TEXAS SYSTEM, priority 2022, published 2025).

For orientation: IC50 means the concentration that gives 50% inhibition. A lower IC50 goes with inhibition by little substance.

“Also recorded” adds a separate entry of the source.

The test system of data set [1] is ES6. Put plainly: Cell proliferation assay and IC50 measurement (PrestoBlue). The data set is classed as cell-based. The following applies: PrestoBlue cell viability. The procedure:
(§1) FIG. 10A-C show representative data illustrating that AT-301 kills Ewing's, RMS, GBM, AML, and other cancer cells. Cell lines were treated with serial dilutions (2×) of AT-301, and IC50 values of each cell line were determined using PrestoBlue dye for cell viability following manufacturer's protocol (Invitrogen, A13261). See also Table 3.
(§2) Jurkat, Molt-4, RH4, RH30, BT40, GBM2, ES3, ES6, ES7, HC827, H1975, H2030 cells: RPMI 1640, 10% FBS, Penicillin (100 units/mL) and streptomycin (100 μg/mL) in the presence of 5% CO2.
(§3) Proliferation of adherent cells was determined on the IncuCyte live-cell imaging system (Essen BioScience). Cells were seeded on clear bottom 96 well plates at a seeding density of 2000 cells/well. Cells were allowed to attach overnight after which the medium was replaced with fresh medium containing serial dilutions (2×) of the compound or DMSO control. Percent confluence was calculated by the IncuCyte software from four different images per well from at least three replicate wells. For non-adherent cells, the 96-well plates were coated with poly-L-lysine before seeding to facilitate cell adhesion. At the end of the assay, dose-dependent cell viability was determined by staining the cells with PrestoBlue (Invitrogen, A13261) as per manufacturer's instructions and IC50 was calculated (FIG. 10).

Data set [2] concerns H2030. Described as above. The data set is classed as cell-based. The settings on record: Homo sapiens, NCI-H2030, PrestoBlue cell viability. How it is done: as §1, §2, §3
In data set [3] the test system is HCC827. The data set is described as above. The data set is classed as cell-based. The settings on record: Homo sapiens, PrestoBlue cell viability. How it is done: as §1, §2, §3
In data set [4] the test system is Jurkat. The description is as above. The settings on record: Homo sapiens, PrestoBlue cell viability. The data set is classed as cell-based. The procedure: as §1, §2, §3
Data set [5] relates to RH4. The data set is described as above. The data set is classed as cell-based. The settings on record: PrestoBlue cell viability. How it is done:
as §1, §2, §3

In data set [6] the test system is RH30. The data set is described as above. The following applies: PrestoBlue cell viability. The data set is classed as cell-based. The procedure: as §1, §2, §3
The subject of data set [7] is BT40. The data set is described as above. The data set is classed as cell-based. The settings on record: PrestoBlue cell viability. The procedure: as §1, §2, §3
In data set [8] the test system is ES3. Described as above. The data set is classed as cell-based. The following applies: PrestoBlue cell viability. How it is done: as §1, §2, §3
The test system of data set [9] is H1975. Described as above. The data set is classed as cell-based. The following applies: Homo sapiens, NCI-H1975, PrestoBlue cell viability. How it is done: as §1, §2, §3
Data set [10] deals with ES7. The description is as above. The data set is classed as cell-based. The following applies: Homo sapiens, PrestoBlue cell viability. How it is done: as §1, §2, §3
Data set [11] concerns Molt4. The description is as above. The data set is classed as cell-based. The following applies: Homo sapiens, MOLT-4, PrestoBlue cell viability. The procedure:
as §1, §2, §3

Data set [12] relates to GBM2. Described as above. The data set is classed as cell-based. The settings on record: PrestoBlue cell viability. The procedure:
as §1, §2, §3

Data set [13] relates to Ewing's sarcoma (EW13). Put plainly: Patient-derived xenograft (PDX) mouse model, single mouse testing (SMT). The following applies: 50 mg/kg orally three times a week for four weeks. The data set is classed as in vivo. The procedure:
To assess the antitumor activity of AT-301 in a mouse model, a single mouse testing (SMT) experiment was used. SMT has 95% concordance with conventional testing and allows far greater inclusion of genetic/epigenetic heterogeneity. A patient-derived xenograft (PDX) mouse model (C.B.17 scid females (Envigo, IN)) of Ewing's sarcoma (EW13) was used in the SMT experiment. 50 mg/kg of AT-301 (formulated in 30% captisol) or just vehicle (30% captisol) was administered orally three times a week for four weeks.
(In general: In xenograft studies the graft and the host belong to different species.)

The test system of data set [14] is endometrial cancer cells. Put plainly: Growth/killing of endometrial cancer cells. The data set is classed as cell-based. The settings on record: dose-dependent. How it is done: as §3
Referring to FIG. 10A, AT-301 kills a variety of cancer cells (brain tumors, rhabdomyosarcoma, nonsmall cell lung cancer, leukemia, and Ewing's Sarcoma. We also tested whether AT-301 can kill cells representing gynecological cancers (ovarian and endometrial cancer). As shown in FIG. 10B-C, AT-301 kills a variety of ovarian and endometrial cancer cells.

The subject of data set [15] is RH41 cells. Kind of data set: Cell cycle analysis, propidium iodide/RNase flow cytometry. The data set is classed as cell-based. The following applies: 7.5 μM AT-301, 24 hours. How it is done:
Referring to FIG. 11A and FIG. 11B, RH4 (FIG. 11A) and ES3 (FIG. 11B) cells were treated with the indicated concentrations of BAF-X-1 or DMSO in triplicate and apoptosis was detected using the IncuCyte Caspase 3/7 green dye (Sartorius). Brightfield and green fluorescence images were captured every 2 hours from 4 fields per well on the IncuCyte live cell imager. The proportion of caspase positive (green) cells relative to % confluence of the well was calculated on the IncuCyte software and plotted against time. Referring to FIG. 11C and FIG. 11D, RH41 cells were treated with 7.5 μM AT-301 (FIG. 11D) or DMSO (FIG. 11C) for 24 hours, harvested with accutase, washed, and fixed in 70% ethanol. They were subsequently stained with propidium iodide/RNase and fluorescence was analyzed on BD flow cytometer. Resulting data was analyzed using FlowJo software.
To test the alterations in cell cycle upon AT-301 treatment, RH41 cells were cultured in 12 well plates, detached using Accutase (Corning, 25-058-Cl), washed with PBS, and fixed in 70% ethanol. For staining, the fixed cells were washed with PBS and stained with FxCycle PI/RNase staining solution (Invitrogen, F10797) as per the supplier's directions. Fluorescence intensity of stained cells was measured on (BD system) and analyzed using FlowJo.
On the technique in general: Flow cytometry measures light scatter and fluorescence of single cells or particles in a stream.

In data set [16] the test system is alveolar Rhabdomyosarcoma cell lines. Put plainly: Growth of Rhabdomyosarcoma cell lines, live cell imaging confluency. The data set is classed as cell-based. The procedure: Briefly, human SMARCA2 was purified, and a high-throughput screen (HTS) of 40,000 compounds was conducted. […] In brief, cells were grown in RPMI media supplemented with 10% Fetal bovine serum (FBS), 1× penicillin, and streptomycin antibiotics. Cells were placed in an incubator with 5% C02 and 50% humidity. When cells reached 90% confluency, cells were harvested, washed twice in 1×PBS, counted using trypan blue exclusion method. Then cells were seeded in 96-well plates (duplicates, n=2) at the density of 20,000 cells per well. Allowed them to attach to the bottom of the well for 1 to 2 hrs and treated with different concentration of AT-301 compound starting at highest concentration of 10 micromolar to serial dilution of the compound to the lowest concentration of 0.039 micromolar. Cells treated with only DMSO were also included as negative control. Cells were monitored for 72 hrs. by live cell imaging method (Incucyte S3) taking images every two hours. The confluency was determined and plotted against time (hours) by using Prism software.
Assays were performed as detailed above for FIG. 4A-E.

As to `Clc1ccc(CNc2nc(NC3CCCC3)nc3ccccc23)cc1Cl` [AT-301, N^2-cyclopentyl-N^4-(3,4-dichlorobenzyl)quinazoline-2,4-diamine], the IC50 in [1] was 2.84 µM; in [2], 6.26 µM; in data set [3] it was 5.21 µM; in data set [4], 2.81 µM; in [5] it was 6.54 µM; in [6] it was 2.96 µM. Moreover, the IC50 in [7] is 3.49 µM; in data set [8], 5.21 µM; in data set [9], 5.31 µM; in data set [10] it was 4.83 µM; in [11], 4.39 µM; in [12], 3.54 µM. In addition, in data set [13] (30% captisol, EW13 PDX in C.B.17 scid females), the Tumor growth result is listed as “completely suppressed the tumor growth”. Also, the Body weight result in [13] (EW13 PDX mouse) is reported as “without any apparent loss in body weight”. In addition, in data set [14], the “Growth/killing of endometrial cancer cells” value is recorded as “kills; also recorded: inhibits the growth”. In addition, in [15], the Cell cycle alteration entry is given as “arrested in GO-Gi phase”. Besides, the “Growth of Rhabdomyosarcoma cell lines” value in [16] (2 other lines) is “moderately attenuated the growth”. For the same molecule, the “Growth of alveolar Rhabdomyosarcoma cell lines” value in data set [16] (4 alveolar Rhabdomyosarcoma cell lines) is given as “attenuate the growth; also recorded: strongly attenuated the growth”.
